Results from US20120101095A1, “ALKOXY-THIENOPYRIMIDINES AS TGF-BETA RECEPTOR KINASE MODULATORS” (priority 2009, published 2012).

Target: T1, GST-ALK5 (Homo sapiens, UniProt P36897)
T1 sequence (P36897 34-503): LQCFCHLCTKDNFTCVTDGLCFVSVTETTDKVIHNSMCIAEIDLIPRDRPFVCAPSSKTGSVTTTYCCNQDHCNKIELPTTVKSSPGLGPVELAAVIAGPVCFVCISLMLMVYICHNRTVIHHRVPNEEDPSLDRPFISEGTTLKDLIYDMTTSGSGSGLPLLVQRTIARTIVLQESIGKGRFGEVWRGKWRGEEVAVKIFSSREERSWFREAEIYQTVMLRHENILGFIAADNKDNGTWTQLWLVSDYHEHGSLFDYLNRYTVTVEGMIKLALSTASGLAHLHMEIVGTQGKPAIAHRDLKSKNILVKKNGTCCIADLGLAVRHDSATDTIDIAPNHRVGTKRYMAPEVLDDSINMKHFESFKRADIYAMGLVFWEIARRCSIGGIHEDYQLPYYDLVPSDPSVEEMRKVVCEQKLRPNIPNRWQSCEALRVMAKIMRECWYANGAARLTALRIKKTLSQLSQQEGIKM
Experiment: In-vitro (enzyme) kinase assay, 384-well flashplate, GST-SMAD2 substrate
Format: biochemical
Details: 31.2 nM GST-ALK5, 439 nM GST-SMAD2, 3 mM ATP, 30° C., 45 min
Experimental: In-Vitro (Enzyme) Assay for Determination of the Efficacy of Inhibitors of the Inhibition of TGF-Beta-Mediated Effects
The kinase assay was carried out as 384-well flashplate assay. 31.2 nM of GST-ALK5, 439 nM of GST-SMAD2 and 3 mM of ATP (with 0.3 μCi of ^33P-ATP/well) were incubated in a total volume of 35 μl (20 mM of HEPES, 10 mM of MgCl2, 5 mM of MnCl2, 1 mM of DTT, 0.1% of BSA, pH 7.4) without or with test substance (5-10 concentrations) at 30° C. for 45 min. The reaction was stopped using 25 μl of 200 mM EDTA solution, filtered with suction at room temperature after 30 min, and the wells were washed with 3 times 100 μl of 0.9% NaCl solution. Radioactivity was measured in the TopCount. The IC50 values were calculated using RS1 (Table 1). Above and below, all temperatures were indicated in ° C.

Row | IC50 [nM] | SMILES
1 | 100 to 500 | Cc1ccc(-c2nc(O[C@H](C)[C@@H](C)O)nc3sc(C(N)=O)c(N)c23)o1 [No 34, 5-Amino-2-((1R,2R)-2-hydroxy-1-methyl-propoxy)-4-(5-methyl-furan-2-yl)-thieno[2,3-d]pyrimidine-6-carboxylic acid amide]
2 | 100 to 500 | Cc1ccc(-c2nc(OCCO)nc3sc(C(N)=O)c(N)c23)o1 [No 21, 5-Amino-2-(2-hydroxy-ethoxy)-4-(5-methyl-furan-2-yl)-thieno[2,3-d]pyrimidine-6-carboxylic acid amide]
3 | 100 to 500 | C=C(C)CCOc1nc(-c2cccc(C(F)(F)F)c2)c2c(N)c(C(N)=O)sc2n1 [No 17, 5-Amino-2-(3-methyl-but-3-enyloxy)-4-(3-trifluoromethyl-phenyl)-thieno[2,3-d]pyrimidine-6-carboxylic acid amide]
4 | > 1000 | NC(=O)c1sc2nc(OCC3CC3)nc(-c3cc4ccccc4s3)c2c1N [No 2]
5 | < 100 | COc1nc(-c2cccc(C)n2)c2c(N)c(C(N)=O)sc2n1 [No 25, 5-Amino-2-methoxy-4-(6-methyl-pyridin-2-yl)-thieno[2,3-d]pyrimidine-6-carboxylic acid amide]
6 | 500 to 1000 | NC(=O)c1sc2nc(OCCO)nc(-c3cccc(C(F)(F)F)c3)c2c1N [No 15, 5-Amino-2-(2-hydroxy-ethoxy)-4-(3-trifluoromethyl-phenyl)-thieno[2,3-d]pyrimidine-6-carboxylic acid amide]
7 | 100 to 500 | COCc1cnn(CCOc2nc(-c3cccc(Cl)c3)c3c(N)c(C(N)=O)sc3n2)c1 [No 52, 5-Amino-4-(3-chloro-phenyl)-2-[2-(4-methoxymethyl-pyrazol-1-yl)-ethoxy]-thieno[2,3-d]pyrimidine-6-carboxylic acid amide]
8 | 500 to 1000 | COCCOc1nc(-c2cccc(C(F)(F)F)c2)c2c(N)c(C(N)=O)sc2n1 [No 16, 5-Amino-2-(2-methoxy-ethoxy)-4-(3-trifluoromethyl-phenyl)-thieno[2,3-d]pyrimidine-6-carboxylic acid amide]
9 | 100 to 500 | NC(=O)CCCOc1nc(-c2cccc(Cl)c2)c2c(N)c(C(N)=O)sc2n1 [No 69, 5-Amino-2-(3-carbamoyl-propoxy)-4-(3-chloro-phenyl)-thieno[2,3-d]pyrimidine-6-carboxylic acid amide]
10 | < 100 | Cc1cccc(-c2nc(OCCn3cccn3)nc3sc(C(N)=O)c(N)c23)n1 [No 27, 5-Amino-4-(6-methyl-pyridin-2-yl)-2-(2-pyrazol-1-yl-ethoxy)-thieno[2,3-d]pyrimidine-6-carboxylic acid amide]
11 | 100 to 500 | Cc1ccc(-c2nc(OCc3cccnc3)nc3sc(C(N)=O)c(N)c23)o1 [No 31, 5-Amino-4-(5-methyl-furan-2-yl)-2-(pyridin-3-ylmethoxy)-thieno[2,3-d]pyrimidine-6-carboxylic acid amide]
12 | 500 to 1000 | NC(=O)c1sc2nc(OCC3CCCC3)nc(-c3cccc(Cl)c3)c2c1N [No 7, 5-Amino-4-(3-chloro-phenyl)-2-cyclopentylmethoxy-thieno[2,3-d]pyrimidine-6-carboxylic acid amide]
13 | 100 to 500 | NC(=O)c1sc2nc(OCC3(CO)CC3)nc(-c3cccc(Cl)c3)c2c1N [No 65, 5-Amino-4-(3-chloro-phenyl)-2-(1-hydroxymethyl-cyclopropylmethoxy)-thieno[2,3-d]pyrimidine-6-carboxylic acid amide]
14 | 100 to 500 | CC(C)(CO)COc1nc(-c2cccc(Cl)c2)c2c(N)c(C(N)=O)sc2n1 [No 68, 5-Amino-4-(3-chloro-phenyl)-2-(3-hydroxy-2,2-dimethyl-propoxy)-thieno[2,3-d]pyrimidine-6-carboxylic acid amide]
15 | 100 to 500 | NC(=O)c1sc2nc(OCCN3CCNC3=O)nc(-c3cccc(Cl)c3)c2c1N [No 61, 5-Amino-4-(3-chloro-phenyl)-2-[2-(2-oxo-imidazolidin-1-yl)-ethoxy]-thieno[2,3-d]pyrimidine-6-carboxylic acid amide]
16 | 100 to 500 | COCCOc1nc(-c2cccc(Cl)c2)c2c(N)c(C(N)=O)sc2n1 [No 1, 5-Amino-4-(3-chloro-phenyl)-2-(2-methoxy-ethoxy)-thieno[2,3-d]pyrimidine-6-carboxylic acid amide]

Row | IC50 [nM] | SMILES
17 | < 100 | C=CCOc1nc(-c2cccc(Cl)c2)c2c(N)c(C(N)=O)sc2n1 [No 3, 2-Allyloxy-5-amino-4-(3-chloro-phenyl)-thieno[2,3-d]pyrimidine-6-carboxylic acid amide]
18 | > 1000 | NC(=O)c1sc2nc(OCC3CCCC3)nc(-c3cccc(C(F)(F)F)c3)c2c1N [No 8, 5-Amino-2-cyclopentylmethoxy-4-(3-trifluoromethyl-phenyl)-thieno[2,3-d]pyrimidine-6-carboxylic acid amide]
19 | > 1000 | NC(=O)c1sc2nc(OC[C@@H]3CCCN3)nc(-c3cccc(Cl)c3)c2c1N [No 76, 5-Amino-4-(3-chloro-phenyl)-2-((S)-1-pyrrolidin-2-ylmethoxy)-thieno[2,3-d]pyrimidine-6-carboxylic acid amide]
20 | 100 to 500 | COc1nc(-c2ccc(C)s2)c2c(N)c(C(N)=O)sc2n1 [No 23, 5-Amino-2-methoxy-4-(5-methyl-thiophen-2-yl)-thieno[2,3-d]pyrimidine-6-carboxylic acid amide]
21 | 100 to 500 | Cc1cccc(-c2nc(OCCN3CCCC3=O)nc3sc(C(N)=O)c(N)c23)n1 [No 53, 5-Amino-4-(6-methyl-pyridin-2-yl)-2-[2-(2-oxo-pyrrolidin-1-yl)-ethoxy]-thieno[2,3-d]pyrimidine-6-carboxylic acid amide]
22 | 100 to 500 | NC(=O)c1sc2nc(OC[C@H](O)CO)nc(-c3cccc(Cl)c3)c2c1N [No 50, 5-Amino-4-(3-chloro-phenyl)-2-((R)-2,3-dihydroxy-propoxy)-thieno[2,3-d]pyrimidine-6-carboxylic acid amide]
23 | 100 to 500 | COc1nc(-c2cccc(C(F)(F)F)c2)c2c(N)c(C(N)=O)sc2n1 [No 5, 5-Amino-2-methoxy-4-(3-trifluoromethyl-phenyl)-thieno[2,3-d]pyrimidine-6-carboxylic acid amide]
24 | 100 to 500 | NC(=O)c1sc2nc(OCC3CCCO3)nc(-c3cccc(Cl)c3)c2c1N (stereo not drawn) [No 73, 5-Amino-4-(3-chloro-phenyl)-2-(tetrahydro-furan-2-ylmethoxy)-thieno[2,3-d]pyrimidine-6-carboxylic acid amide]
25 | < 100 | NC(=O)c1sc2nc(OCCN3CCOCC3=O)nc(-c3cccc(Cl)c3)c2c1N [No 55, 5-Amino-4-(3-chloro-phenyl)-2-[2-(3-oxo-morpholin-4-yl)-ethoxy]-thieno[2,3-d]pyrimidine-6-carboxylic acid amide]
26 | 100 to 500 | NC(=O)c1sc2nc(OC[C@@H]3CCC(=O)N3)nc(-c3cccc(Cl)c3)c2c1N [No 75, 5-Amino-4-(3-chloro-phenyl)-2-((S)-5-oxo-pyrrolidin-2-ylmethoxy)-thieno[2,3-d]pyrimidine-6-carboxylic acid amide]
27 | < 100 | Cn1cnc(COc2nc(-c3cccc(Cl)c3)c3c(N)c(C(N)=O)sc3n2)c1 [No 45, 5-Amino-4-(3-chloro-phenyl)-2-(1-methyl-1H-imidazol-4-ylmethoxy)-thieno[2,3-d]pyrimidine-6-carboxylic acid amide]
28 | 100 to 500 | NC(=O)c1sc2nc(OC3CCC(O)C3)nc(-c3cccc(Cl)c3)c2c1N (stereo not drawn) [No 64, 5-Amino-4-(3-chloro-phenyl)-2-(3-hydroxy-cyclopentyloxy)-thieno[2,3-d]pyrimidine-6-carboxylic acid amide]
29 | 100 to 500 | Cc1ccc(-c2nc(OCc3ccccn3)nc3sc(C(N)=O)c(N)c23)o1 [No 38, 5-Amino-4-(5-methyl-furan-2-yl)-2-(pyridin-2-ylmethoxy)-thieno[2,3-d]pyrimidine-6-carboxylic acid amide]
30 | 100 to 500 | NC(=O)c1sc2nc(OCC3CCC(CO)CC3)nc(-c3cccc(Cl)c3)c2c1N (stereo not drawn) [No 67, 5-Amino-4-(3-chloro-phenyl)-2-(4-hydroxymethyl-cyclohexylmethoxy)-thieno[2,3-d]pyrimidine-6-carboxylic acid amide]
31 | < 100 | NC(=O)c1sc2nc(OCCN3CCCC3=O)nc(-c3cccc(Cl)c3)c2c1N [No 48, 5-Amino-4-(3-chloro-phenyl)-2-[2-(2-oxo-pyrrolidin-1-yl)-ethoxy]-thieno[2,3-d]pyrimidine-6-carboxylic acid amide]

Row | SMILES | IC50 [nM]
32 | CC(C)(C)OCCOc1nc(-c2cccc(Cl)c2)c2c(N)c(C(N)=O)sc2n1 [No 11, 5-Amino-2-(2-tert-butoxy-ethoxy)-4-(3-chloro-phenyl)-thieno[2,3-d]pyrimidine-6-carboxylic acid amide] | 100 to 500
33 | NC(=O)c1sc2nc(OCCC(O)CO)nc(-c3cccc(Cl)c3)c2c1N (stereo not drawn) [No 62, 5-Amino-4-(3-chloro-phenyl)-2-(3,4-dihydroxy-butoxy)-thieno[2,3-d]pyrimidine-6-carboxylic acid amide] | < 100
